This note sets out measurements from patent US12479940B2, “Amide compound, polymerizable composition, cured material, and method of manufacturing cured material” (ADEKA CORPORATION, priority 2019, dated 2025).

The text on the data set: As the polymerization initiator (the water-soluble polymerization initiator), N,N-bis(2-hydroxyethyl)butane-1-aminium=phenyl(2,4,6-trimethylbenzoyl)phosphinate represented by A3, 1-[4-(2-hydroxyethoxy)phenyl]-2-hydroxy-2-methyl-1-propan-1-one represented by A32, and N,N-bis(2-hydroxyethyl)butane-1-aminium=9-oxo-9H thioxanthene-4-carboxylate represented by A57 were used.

With `Cc1cc(C)c(C(=O)P(=O)(O)c2ccccc2)c(C)c1` [A3, N,N-bis(2-hydroxyethyl)butane-1-aminium=phenyl(2,4,6-trimethylbenzoyl)phosphinate], the solubility in water is no less than 1 mass %.

Turning to `CC(C)(O)C(=O)c1ccc(OCCO)cc1` [A32, 1-[4-(2-hydroxyethoxy)phenyl]-2-hydroxy-2-methyl-1-propan-1-one], the solubility in water is no less than 1 mass %.
